Data on one molecule can be found in paper PMC7559897, “Designed Antimicrobial Peptides Against Trauma-Related Cutaneous Invasive Fungal Wound Infections” (Journal of Fungi, 2020).

Type in all cases: cell-based
Assay [1] has as its system Absidia corymbifera NRRL 6251. To be noted: potato dextrose broth, 24 h, 37 °C, OD600 <0.1 in at least 3 of 4 wells, dose range 2 to 128 µg/mL; shaded values previously reported ref 17. The essentials: (§1)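 MIC = lowest dAMP level giving OD600 <0.1 in at least three of four replicate wells after 24 h at 37 °C. Inoculum ~10^6 CFU/mL in 2X cation-adjusted Mueller–Hinton broth; potato dextrose broth for the fungal isolate. Test range 2–128 μg/mL plus untreated.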

In assay [2] the test system is Aspergillus flavus MYA-1004. To be noted: potato dextrose broth, 24 h, 37 °C, OD600 <0.1 in at least 3 of 4 wells, dose range 2 to 128 µg/mL; shaded values previously reported ref 17. An outline of the steps:
as §1

Assay [3] concerns Aspergillus flavus MYA-3651. To be noted: potato dextrose broth, 24 h, 37 °C, OD600 <0.1 in at least 3 of 4 wells, dose range 2 to 128 µg/mL; shaded values previously reported ref 17. The essentials: as §1
The test system of assay [4] is Aspergillus fumigatus 9648. The note with it: potato dextrose broth, 24 h, 37 °C, OD600 <0.1 in at least 3 of 4 wells, dose range 2 to 128 µg/mL; shaded values previously reported ref 17. An outline of the steps:
as §1

The test system of assay [5] is Aspergillus fumigatus 9651. To be noted: potato dextrose broth, 24 h, 37 °C, OD600 <0.1 in at least 3 of 4 wells, dose range 2 to 128 µg/mL; shaded values previously reported ref 17. The essentials:
as §1

The next assay deals with Candida albicans Y-326. To be noted: potato dextrose broth, 24 h, 37 °C, OD600 <0.1 in at least 3 of 4 wells, dose range 2 to 128 µg/mL; shaded values previously reported ref 17. An outline of the steps: as §1
The next assay relates to Candida albicans Y-6359. The note with it: potato dextrose broth, 24 h, 37 °C, OD600 <0.1 in at least 3 of 4 wells, dose range 2 to 128 µg/mL; shaded values previously reported ref 17. An outline of the steps: as §1
The next assay relates to Candida krusei Y-27803. The note with it: potato dextrose broth, 24 h, 37 °C, OD600 <0.1 in at least 3 of 4 wells, dose range 2 to 128 µg/mL; shaded values previously reported ref 17. The essentials:
as §1

The next assay deals with Candida krusei Y-27825. To be noted: potato dextrose broth, 24 h, 37 °C, OD600 <0.1 in at least 3 of 4 wells, dose range 2 to 128 µg/mL; shaded values previously reported ref 17. The essentials: as §1
The subject of assay [6] is Candida parapsilosis Y-1761. To be noted: potato dextrose broth, 24 h, 37 °C, OD600 <0.1 in at least 3 of 4 wells, dose range 2 to 128 µg/mL; shaded values previously reported ref 17. The essentials:
as §1

For assay [7], the system named is Candida parapsilosis Y-1763. To be noted: potato dextrose broth, 24 h, 37 °C, OD600 <0.1 in at least 3 of 4 wells, dose range 2 to 128 µg/mL; shaded values previously reported ref 17. An outline of the steps: as §1
For a further assay, the system named is E. cloacae 6053. The note with it: cation adjusted Mueller-Hinton broth, ~10^6 CFU/mL, 24 h, 37 °C, OD600 <0.1 in at least 3 of 4 wells, 2-128 μg/mL; shaded values previously reported ref 18. The essentials: as §1
A further assay relates to E. cloacae 6054. To be noted: cation adjusted Mueller-Hinton broth, ~10^6 CFU/mL, 24 h, 37 °C, OD600 <0.1 in at least 3 of 4 wells, 2-128 μg/mL; shaded values previously reported ref 18. An outline of the steps: as §1
Assay [8] deals with Fusarium solani NRRL 28548. The note with it: potato dextrose broth, 24 h, 37 °C, OD600 <0.1 in at least 3 of 4 wells, dose range 2 to 128 µg/mL; shaded values previously reported ref 17. An outline of the steps: as §1
The test system of assay [9] is Mucor circinelloides NRRL 3631. The note with it: potato dextrose broth, 24 h, 37 °C, OD600 <0.1 in at least 3 of 4 wells, dose range 2 to 128 µg/mL; shaded values previously reported ref 17. The essentials: as §1
A further assay relates to S. epidermis ATCC 51625. The note with it: cation adjusted Mueller-Hinton broth, ~10^6 CFU/mL, 24 h, 37 °C, OD600 <0.1 in at least 3 of 4 wells, 2-128 μg/mL; shaded values previously reported ref 18. An outline of the steps:
as §1

In brackets after ≈: the same amount, converted by molar mass. Bridge positions count the residues as written; N and C are the ends. Peptide text beside a SMILES is read from it.

`CC[C@H](C)[C@@H]1NC(=O)CNC(=O)[C@H](CCCCN)NC(=O)[C@H](Cc2ccc(O)cc2)NC(=O)[C@@H]2CSSC[C@H](NC1=O)C(=O)N[C@@H](Cc1ccc(O)cc1)C(=O)N[C@@H](CCCCN)C(=O)N[C@@H](CCCCN)C(=O)N[C@H](C(=O)N[C@@H](CCCCN)C(N)=O)CSSC[C@H](NC(=O)[C@H](Cc1c[nH]c3ccccc13)NC(=O)[C@@H](N)CCCNC(=N)N)C(=O)N[C@@H](Cc1ccccc1)C(=O)N[C@@H](CCCCN)C(=O)N[C@@H](C(C)C)C(=O)N2` [RP556] (H-RWCFKVCYKGICYKKCK-NH2; disulfide 3-16, 7-12): the “MIC against Absidia corymbifera NRRL 6251” value in assay [1] amounted to 2 µg/mL (≈ 0.929 µM). The “MIC against Aspergillus flavus MYA-1004” value in [2] turned out to be 64 µg/mL (≈ 29.7 µM). The “MIC against Aspergillus flavus MYA-3651” value in assay [3] was 64 µg/mL (≈ 29.7 µM). Further, in assay [4], the “MIC against Aspergillus fumigatus 9648” value is 64 µg/mL (≈ 29.7 µM). In addition, the “MIC against Aspergillus fumigatus 9651” value in [5] came to 64 µg/mL (≈ 29.7 µM). Besides, in the assay on Candida albicans Y-326, the “MIC against Candida albicans Y-326” value stood at 16 µg/mL (≈ 7.44 µM). Besides, in the assay with Candida albicans Y-6359, the “MIC against Candida albicans Y-6359” value worked out at 8 µg/mL (≈ 3.72 µM). The “MIC against Candida krusei Y-27803” value against Candida krusei Y-27803 was determined as 16 µg/mL (≈ 7.44 µM). For the same molecule, the “MIC against Candida krusei Y-27825” value in the assay on Candida krusei Y-27825 came to 32 µg/mL (≈ 14.9 µM). The “MIC against Candida parapsilosis Y-1761” value in assay [6] was 32 µg/mL (≈ 14.9 µM). The “MIC against Candida parapsilosis Y-1763” value in assay [7] stood at 2 µg/mL (≈ 0.929 µM). Further, the “MIC against E. cloacae 6053” value with E. cloacae 6053 came out at 8 µg/mL (≈ 3.72 µM). The “MIC against E. cloacae 6054” value in the assay on E. cloacae 6054 came to 8 µg/mL (≈ 3.72 µM). Also, the “MIC against Fusarium solani NRRL 28548” value in assay [8] was 2 µg/mL (≈ 0.929 µM). The “MIC against Mucor circinelloides NRRL 3631” value in assay [9] turned out to be 64 µg/mL (≈ 29.7 µM). Further, the “MIC against S. epidermis ATCC 51625” value in the assay on S. epidermis ATCC 51625 was 4 µg/mL (≈ 1.86 µM).
